The source of these data is US6514968B1, “Aminoalkoxy carbazoles for the treatment of cns diseases” (Pharmacia & Upjohn Company, priority 1999, dated 2003).

For series [1], the target named is T1, cloned human 5-HT6 receptor (Homo sapiens, UniProt P50406).
T1 construct: host or cells: HeLa cells (G-418 selection), membrane preparation
In words: 5-HT6 Receptor Binding Assay. To be noted: [3H]-lysergic acid diethylamide (LSD) radioligand, membranes of Hela cells containing the cloned human 5-HT6 receptor, SPA beads; estimated IC50 converted to Ki by Cheng-Prusoff. On the procedure:
5-HT6 Receptor Binding Assay
Growth of Cells and Membrane Preparation
Hela cells containing the cloned human 5-HT6 receptor were acquired from Dr. David R. Sibley's laboratory in National Institute of Health (see Sibley, D. R., J. Neurochemistry, 66, 47-56, 1996). Cells were grown in high glucose Dulbecco's modified Eagle's medium, supplemented with L-glutamine, 0.5% sodium pyruvate, 0.3% penicillin-streptomycin, 0.025% G-418 and 5% Gibco fetal bovine serum and then were harvested, when confluent, in cold phosphate-buffered saline.
Harvested intact cells were washed once in cold phosphate-buffered saline. The cells were pelleted and resuspended in 100 ml of cold 50 mM Tris, 5 mM EDTA and 5 mM EGTA, pH 7.4. Homogenization was with a Vir Tishear generator, 4 cycles for 30 seconds each at setting 50. The homogenized cells were centrifuged at 700 RPM (1000×g) for 10 minutes and the supernatant was removed. The pellet was resuspended in 100 ml of the above buffer and rehomogenized for 2 cycles. The rehomogenized cells were then centrifuged at 700 RPM (1000×g) for 10 minutes and the supernatant was removed. The combined supernatant (200ml) was centrifuged at 23,000 RPM (80,000×g) for 1 hour in a Beckman Rotor (42.1 Ti). The membrane pellet was resupended in 50-8-ml of assay buffer containing HEPES 20 mM, MgCl2 10 mM, NaCl 150 mM, EDTA 1 mM, pH 7.4 and stored frozen in aliqouts at −70° C.
The radioligand binding assay used [^3H]-lysergic acid diethylamide (LSD). The assay was carried out in Wallac 96-well sample plates by the addition of 11 μl of the test sample at the appropriate dilution (the assay employed 11 serial concentrations of samples run in duplicate), 11 μl of radioligand, and 178 μl of a washed mixture of WGA-coated SPA beads and membranes in binding buffer. The plates were shaken for about 5 minutes and then incubated at room temperature for 1 hour. The plates were then loaded into counting cassettes and counted in a Wallac MicroBeta Trilux scintillation counter.
Binding Constant (Ki) Determination
Eleven serial dilutions of test compounds were distributed to assay plates using the PE/Cetus Pro/Pette pipetter. These dilutions were, followed by radioligand and the bead-membrane mixture prepared as described above. The specifically bound cpm obtained were fit to a one-site binding model using GraphPad Prism ver. 2.0. Estimated IC50 values were converted to Ki values using the Cheng-Prusoff equation (Cheng, Y. C. et al., Biochem. Pharmacol., 22, 3099-108, 1973).

Each structure is given as a SMILES string. Structures can show the parent of a compound that is named as a salt. Where only a bound is given, the exact number is not on record here.

T1 sequence (P50406 whole entry): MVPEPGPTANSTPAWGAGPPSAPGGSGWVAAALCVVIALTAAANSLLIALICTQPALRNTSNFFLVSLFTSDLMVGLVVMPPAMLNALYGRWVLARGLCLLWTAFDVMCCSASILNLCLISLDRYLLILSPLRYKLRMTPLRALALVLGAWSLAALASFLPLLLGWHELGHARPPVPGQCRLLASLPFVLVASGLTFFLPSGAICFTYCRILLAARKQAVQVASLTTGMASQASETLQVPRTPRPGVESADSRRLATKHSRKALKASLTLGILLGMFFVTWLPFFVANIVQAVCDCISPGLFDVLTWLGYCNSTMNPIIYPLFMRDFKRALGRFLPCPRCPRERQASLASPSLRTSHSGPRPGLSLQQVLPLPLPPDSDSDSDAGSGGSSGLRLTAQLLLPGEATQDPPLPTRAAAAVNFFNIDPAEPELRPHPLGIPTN

On to `CCN(CC)CCOc1cccc2c1c1cccc(F)c1n2Cc1ccccc1` [Example 7, N-{2-[(9-Benzyl-8-fluoro-9H-carbazol-4-yl)oxy]ethyl}-N,N-diethylamine], for which the melting point lay in the range of 60 to 60.5 °C. Moreover, the Ki in series [1] was 2.6 nM.
Molecule `CCN(CC)CCOc1cccc2c1c1cc(F)ccc1n2Cc1ccccc1` [Example 44, N-{2-[(9-Benzyl-6-fluoro-9H-carbazol-4-yl)oxy]ethyl}-N,N-diethylamine] came in with a melting point of 68 to 69 °C. In addition, in series [1], the inhibition constant (Ki) was 180 nM.
The corresponding values for `CNCCOc1cccc2c1c1cc(C)ccc1n2Cc1ccccc1` [Example 47, N-{2-[(9-Benzyl-6-methyl-9H-carbazol-4-yl)oxy]ethyl}-N-methylamine] are 96 to 96.75 °C and 2.2 nM.
Regarding `Cc1ccc2c(c1)c1c(OCCN)cccc1n2Cc1ccccc1.O=C(O)/C=C\C(=O)O` [Example 46, 2-[(9-Benzyl-6-methyl-9H-carbazol-4-yl)oxy]ethylamine], the melting point lay within 187.5 to 188 °C. The Ki in series [1] was 6.1 nM.
The corresponding values for `CCN(CC)CCOc1cccc2c1c1cccc(Cl)c1n2Cc1ccccc1` [Example 2, N-{2-[(9-Benzyl-8-chloro-9H-carbazol-4-yl)oxy]ethyl}-N,N-diethylamine] are 73.5 to 75 °C and 6 nM.
The corresponding values for `COCCNCCOc1cccc2c1c1ccccc1n2Cc1ccccc1.O=C(O)/C=C\C(=O)O` [Example 36, N-{2-[(9-Benzyl-9H-carbazol-4-yl)oxy]ethyl}-N-(2-methoxyethyl)amine] are 175 to 175.5 °C and 16 nM.
For `Cc1nc(Cn2c3ccccc3c3c(OCCN)cccc32)cs1` (as salt: methane sulfonate) [Example 51, 2-({9-[(2-Methyl-1,3-thiazol-4-yl)methyl]-9H-carbazol-4-yl}oxy)ethylamine], the melting point lay in the range of 228.5 to 229 °C.
On the same count and under the same terms, then `NCCOc1cccc2c1c1ccccc1n2Cc1csc2ccc(Cl)cc12` (as salt: methane sulfonate) [Example 50, 2-({9-[(5-Chloro-1-benzothiophen-3-yl)methyl]-9H-carbazol-4-yl}oxy)ethylamine], with > 256 °C.
In turn, `CCN(CC)CCOc1cccc2c1c1cccc(F)c1n2Cc1ccc(F)cc1` [Example 42, N,N-Diethyl-N-(2-{[8-fluoro-9-(4-fluorobenzyl)-9H-carbazol-4-yl]oxy}ethyl)amine] showed a melting point of 59 to 60 °C. Moreover, the Ki in series [1] was 20 nM.
`CNCCOc1cccc2c1c1ccccc1n2Cc1ccccc1.O=C(O)/C=C\C(=O)O` [Example 34, N-{2-[(9-Benzyl-9H-carbazol-4-yl)oxy]ethyl}-N-methylamine] displayed a melting point of 182.5 to 184.5 °C. Further, the Ki in series [1] is 5.7 nM.
For `O=CNCCOc1cccc2c1c1ccccc1n2Cc1ccccc1` [Example 33, N-{2-[(9-benzyl-9H-carbazol-4-yl)oxy]ethyl}formamide], the melting point was 161 to 162 °C. The Ki in series [1] was 211 nM.
The like results for `CCN(CC)CCOc1cccc2c1c1ccccc1n2Cc1ccccc1` [Example 1, N-{2-[(9-Benzyl-9H-carbazol-4-yl)oxy]ethyl}-N,N-diethylamine] were, in that order, 79 to 80.5 °C and 24 nM.
The corresponding values for `CCN(CC)CCOc1cccc2c1c1cc(Cl)ccc1n2Cc1ccccc1` [Example 43, N-{2-[(9-Benzyl-6-chloro-9H-carbazol-4-yl)oxy]ethyl}-N,N-diethylamine] are 96 to 97.5 °C and 182 nM.
Take `O=C(O)/C=C\C(=O)O.OCCNCCOc1cccc2c1c1ccccc1n2Cc1ccccc1` [Example 49, 2-({2-[(9-benzyl-9H-carbazol-4-yl)oxy]ethyl}amino)-1-ethanol]: the melting point is 160 °C. Further, in series [1], the Ki was 4.5 nM.
Consider `CC(C)(CO)NCCOc1cccc2c1c1ccccc1n2Cc1ccccc1` [Example 17, 2-({2-[(9-benzyl-9H-carbazol-4-yl)oxy]ethyl}amino)-2-methyl-1-propanol], for which the Ki in series [1] was 164 nM.
For `c1ccc(Cn2c3ccccc3c3c(OCCN4CCCCC4)cccc32)cc1` [Example 39, 9-Benzyl-4-[2-(1-piperidinyl)ethoxy]-9H-carbazole], the melting point is 113.5 to 114.5 °C. Further, the Ki in series [1] is 12 nM.
Turning to `CCCN(CCC)CCOc1cccc2c1c1ccccc1n2Cc1ccccc1` [Example 15, N-{2-[(9-benzyl-9H-carbazol-4-yl)oxy]ethyl}-N-propyl-1-propanamine], the Ki in series [1] was 394 nM.
The same measure, in the same setting: for `Cc1nc(Cn2c3ccccc3c3c(OCCN)cccc32)cs1` [Example 51, 2-({9-[(2-Methyl-1,3-thiazol-4-yl)methyl]-9H-carbazol-4-yl}oxy)ethylamine] the value was 113 nM.
Turning to `c1ccc(Cn2c3ccccc3c3c(OCCNCc4ccccn4)cccc32)cc1` [Example 6, N-{2-[(9-Benzyl-9H-carbazol-4-yl)oxy]ethyl}-N-(2-pyridinylmethyl)amine], the Ki in series [1] is 69 nM.
Still for that read-out and setting: for `CCN(CC)CCOc1cccc2c1c1cc(C)ccc1n2Cc1ccccc1` [Example 45, N-{2-[(9-Benzyl-6-methyl-9H-carbazol-4-yl)oxy]ethyl}-N,N-diethylamine] the value was 6.6 nM.
Turning to `Cc1cccc(Cn2c3ccccc3c3c(OCCN)cccc32)c1` [Example 59, 2-{[9-(3-Methylbenzyl)-9H-carbazol-4-yl]oxy}ethylamine], in series [1], the Ki was 20 nM.
With `O=CNCCN1CCN(CCOc2cccc3c2c2ccccc2n3Cc2ccccc2)CC1` [Example 27, 2-(4-{2-[(9-benzyl-9H-carbazol-4-yl)oxy]ethyl}-1-piperazinyl)ethylformamide], the Ki in series [1] was 138 nM.
Take `CCN(CC)CCOc1cccc2c1c1cccc(Cl)c1n2Cc1ccc(F)cc1` [Example 3, N-(2-{[8-Chloro-9-(4-fluorobenzyl)-9H-carbazol-4-yl]oxy}ethyl)-N,N-diethylamine]: the melting point was in the range of 104.5 to 105.5 °C. Further, the inhibition constant (Ki) in series [1] is 22 nM.
The corresponding values for `NCCOc1cccc2c1c1cccc(F)c1n2Cc1ccccc1` [Example 41, 2-[(9-Benzyl-8-fluoro-9H-carbazol-4-yl)oxy]ethylamine] are 122.25 to 123 °C and 2.4 nM.
As for `c1ccc(Cn2c3ccccc3c3c(OCCNCCCN4CCOCC4)cccc32)cc1` [Example 12], the inhibition constant (Ki) in series [1] was 184 nM.
In the case of `NCCOc1cccc2c1c1ccccc1n2Cc1cccc(F)c1` [Example 54, 2-{[9-(3-Fluorobenzyl)-9H-carbazol-4-yl]oxy}ethylamine], the inhibition constant Ki in series [1] was 101 nM.
In the case of `NCCOc1cccc2c1c1ccccc1n2Cc1ccccc1F` [Example 56, 2-{[9-(2-Fluorobenzyl)-9H-carbazol-4-yl]oxy}ethylamine], the Ki in series [1] was 119 nM.
